Test results taken from patent publication US6911306B1, “TMS1 compositions and methods of use” (Emory University, priority 1999, dated 2005).
Where a SMILES comes first, the peptide text is derived from it. The star is where a group is joined. Cbz = O=C(OCc1ccccc1)*; CH2F = FC*

Legend:
TMS1 CpG island = assay: Methylation-specific PCR of the TMS1 CpG island after demethylating agent treatment; format: cell-based, human; conditions: 0.5 μM for 3 days; ZR75-1, Hs578t and MDA MB231 cells
Protocol: Bisulfite modification and methylation-specific PCR were performed as previously described. (Herman, J. G., et al., Proc. Natl. Acad. Sci. U.S.A. 93:9821-9826, 1996) Briefly, 2 μg genomic DNA was denatured by incubation at 37° C. in 0.2N NaOH for 10 min. then treated with 3M sodium metabisulfite and 0.5 M hydroquinone at 50° C. for 16 h. DNA was desalted using Wizard DNA Clean-Ups (Promega). Modification was completed by the addition of NaOH to a final concentration of 0.3M and DNA was recovered by ethanol precipitation. Approximately 50 ng bisulfite-modified DNA was amplified by PCR with the following reaction conditions: 67 mM Tris-HCl, pH 8.8, 16.6 mM NH4SO4, 6.7 μM EDTA, 10 mM β-mercaptoethanol, 6.7 mM MgCl2, 1 μM each primer in a 25 μl reaction. Hot start PCR was performed using an initial 5 minute incubation at 95° C. followed by the addition of 0.5 U Taq polymerase (Life Technologies) and 35 cycles of PCR (95° C., 30 s; 58° C., 30 s; 72° C., 30 s). […]
(§1) If loss of TMS1 expression is directly related to methylation of the CpG island, then expression of TMS1 should be restored following treatment with a demethylating agent. […] Methylation of the TMS1 CpG island was analyzed by methylation specific PCR and expression of TMS1 was analyzed by RT-PCR with β-actin controls. […]

TMS1 transcript = assay: RT-PCR analysis of TMS1 expression after demethylating agent treatment; format: cell-based, human; conditions: 0.5 μM for 3 days; ZR75-1, Hs578t and MDA MB231 cells
Protocol: Six μg total RNA was pretreated with DNAse I (Life Technologies) and reverse transcribed using random hexamer primers and MMLV-reverse transcriptase according to the manufacturers instructions (Life Technologies). One/30th of the reverse transcriptase reaction equivalent to 200 ng starting RNA was used directly in a PCR reaction. The PCR reaction conditions were: 67 mM Tris-HCl, pH 8.8, 16.6 mM NH4SO4, 6.7 μM EDTA, 10 mM β-mercaptoethanol, 4.7 mM MgCl2, 10% DMSO, 400 nM each primer in a 25 μl reaction. Hot start PCR was performed using an initial 5 minute incubation at 95° C. followed by the addition of 0.5 U Taq polymerase and 35 cycles of PCR (95° C., 30 s; 50-55° C., 60 s; 72° C., 60 s). Primers used for analysis of TMS1 were TGGGCCTGCAGGAGATG-3′ (SEQ ID NO:13) and 5′-ATTTGGTGGGATTGCCAG-3′ (SEQ ID NO:9) with an annealing temperature of 50° C. Primers used for the analysis for β-actin were 5′-[…]-3′ (SEQ ID NO:14) and 5′-[…]-3′ (SEQ ID NO:15) with an annealing temperature of 55° C. […]
as §1

MTMS22 cells [1] = assay: DNA fragmentation in MTMS22 cells; format: cell-based, human
Protocol: Where indicated, MTMS22 cells were treated with 5 μM pon A (Invitrogen) or 40 μM Z-VAD-fmk (Enzyme System Products, Livermore, Calif.). DNA was collected from 2×10^6 cells as previously described. (Burow, M. E., et al. Cancer Research. 58: 4940-4946, 1998) 5 μg of DNA from each sample was visualized by separation on a 2% agarose gel containing ethidium bromide.

MTMS22 cells [2] = assay: MTMS22 cell proliferation with ecdysone-inducible TMS1 expression; format: cell-based, human
Protocol: The Ecdysone-Inducible Mammalian Expression System (Invitrogen, Carlsbad, Calif.) was used to create clones of 293 cells that inducibly express mycTMS1. The mycTMS1 cDNA was cloned into the HindIII/XhoI sites of the pIND expression vector (pIND-mycTMS1). EcR-293 cells (Invitrogen, Carlsbad, Calif.) containing the pVgRXR vector were transfected with pIND-mycTMS1 or pIND using Lipofectamine Reagent (Life Technologies, Grand Island, N.Y.). Cells were maintained in selection medium containing 600 μg/ml G418 for 3 weeks to isolate stably transfected colonies. Clonal populations transfected with pIND-mycTMS1 were then tested for inducible expression by western blot analysis after addition of 5 μM pon A.
Human embryonic kidney 293 cells and EcR-293 derivatives (MTMS22 and PIND1) were cultured in DMEM (Life Technologies, Inc. Grand Island, N.Y.) supplemented with 10% fetal bovine serum. MTMS22 and PIND1 cells were maintained in the presence of 400 μg/ml zeocin and 600 μg/ml G418. Transfections of 293 cells were carried out in 24-well dishes with 1×10^5 cells and 0.5 μg total DNA per well using the calcium phosphate method. As a transfection marker, a βgal expression vector (β-gal CMV) was included at a 1:4 ratio with the indicated cDNA constructs. […]

pIND1 control cells = assay: Growth of pIND1 control cells; format: cell-based, human; conditions: empty-vector control cells
Protocol: (§2) Human embryonic kidney 293 cells and EcR-293 derivatives (MTMS22 and PIND1) were cultured in DMEM (Life Technologies, Inc. Grand Island, N.Y.) supplemented with 10% fetal bovine serum. MTMS22 and PIND1 cells were maintained in the presence of 400 μg/ml zeocin and 600 μg/ml G418. Transfections of 293 cells were carried out in 24-well dishes with 1×10^5 cells and 0.5 μg total DNA per well using the calcium phosphate method. As a transfection marker, a βgal expression vector (β-gal CMV) was included at a 1:4 ratio with the indicated cDNA constructs. In co-transfections with DN-caspase-8 or DN-caspase-9, 0.2 μg of pcDNA-TMS1 was transfected with […] of pcDNA3.1 or DN-caspase-8 or -9 along with 0.1 μg of β-gal CMV as a transfection control.
An ecdysone-regulated expression system was used to create a 293 cell line that inducibly expresses TMS1. […] In addition, a clonal population of cells stably transfected with the empty expression vector was isolated as a control (PIND1). Upon addition of pon A to the MTMS22 cells, mycTMS1 was detectable by western blotting as early as 6 hours after treatment and continued to accumulate in the cells over 48 hours (FIG. 6A). […] By 96 hours, pon A-treated cells were declining in number, confirming cell death. As a biochemical marker for apoptosis, MTMS22 cells were examined for DNA fragmentation in the presence or absence of TMS1 expression. […]

293 cells = assay: Fluorescence microscopy of TMS1 subcellular localization; format: cell-based, human; conditions: cells expressing TMS1 in the presence of Z-VAD
Protocol: Cells were fixed in 4% formaldehyde, permeabilized in 0.2% triton X-100 in PBS and blocked with 3% BSA/0.02% triton X-100 in PBS. Coverslips were incubated with myc antibody (9E10) (Santa Cruz Biotechnology, Santa Cruz, Calif.) at a 1:500 dilution, washed 4 times in PBS/0.02% triton X-100 and incubated with a secondary FITC antibody at a 1:2000 dilution. After 3 more washes, cells were stained with Hoechst 33258 dye to visualize nuclei, washed twice in PBS and mounted on slides. Cells were viewed at 400× or 1000× using the Olympus BX60 microscope. Digital images were captured using IP Lab Spectrum v.3.1 software (Scanalytics, Inc., Fairfax, Va.).

[3] = test system: 293 human embryonic kidney cells; assay: Morphological apoptosis assay in transiently transfected 293 cells; format: cell-based; conditions: 48 h; for apoptosis on ectopic expression: transient transfection of 293 cells
Protocol: 293 human embryonic kidney cells were plated on glass coverslips in 24 well dishes at 1×10^5 cells per well, and were transfected with 0.4 μg of pcDNA3.1 or the TMS1 expression constructs plus 0.1 μg β-galactosidase expression vector (pCMVβgal, Clonetech) using the calcium phosphate precipitation method. Where indicated, 40 μM zVADfmk (Enzyme System Product, Livermore, Calif.) was included during the recovery period. Forty-eight hours after transfection, coverslips were fixed in 4% paraformaldehyde and stained for β-galactosidase activity, using X-gal, and for nuclear morphology, using Hoecsht […] dye. Cells were visualized by phase contrast microscopy. At least 200 β-galactosidase positive cells from randomly selected fields were counted from each transfection. Apoptotic cells were distinguished based on morphologic features typical of adherent cells undergoing apoptosis, including becoming condensed, rounded and detached from the growth surface as described. (McCarthy, J. V. et al., J.Biol.Chem. 273:16968-16975, 1998). Each transfection experiment was repeated three times.
as §2
48 h after transfection, 293 cells were fixed on coverslips and stained for β-gal activity. Nuclei were stained using Hoechst 33258 dye (Sigma, St. Louis, Mo.). […]

NF-κB = assay: CAT assay for NF-κB activation; format: cell-based, human; conditions: 293 cells, NF-κB CAT reporter, increasing amounts of TMS1
Protocol: 293 cells plated at 60% confluence in 6 well dishes were transfected with 0.2 μg of the NF-κB CAT reporter construct (pJECAT2.6) and increasing amounts of pcDNA-mycTMS1 by the calcium phosphate method. 0.2 μg of β-gal CMV was included as a transfection control, and the total amount of DNA transfected was kept constant at 2 μg with pcDNA3.1. Cell lysates were collected 36 h after transfection in β-gal lysis buffer (Promega, Madison, Wis.) and assayed for β-gal activity using the β-Galactosidase Enzyme Assay System (Promega, Madison, Wis.) per manufacturer's instructions. CAT assays were performed basically as described. (Ausubel, F. M., et al. Curr. Prot. Mol. Biol., Vol. 2, pp. 9.7.5-9.7.6: John Wiley & Sons, Inc., 1997) In brief, cell lysates were incubated with [^14C]chloramphenicol and n-butyryl CoA. [^14C]-labeled acetylated chloramphenicol was then separated from the nonacetylated form by organic phase extraction, and radioactive counts were determined using a scintillation counter.

Hs578t cells = assay: Colony formation assay; format: cell-based, human; conditions: stable expression, 14 days G418 selection, relative to vector control
Protocol: Breast cancer cells, including Hs57 8t, (3×10^5) were seeded into six well dishes and transfected with 1 μg pcDNA3.1 or the TMS1 expression constructs using 5 μl Lipofectamine reagent (Life Technologies). Twenty-four hours after transfection, cells were diluted 1:100-1:500 and seeded into 100 mm dishes in medium containing 400 μg/ml G418. After 14 days of selection, stable G418-resistant colonies were fixed and stained with 50% methanol, 0.25% crystal violet, and counted. The total number of colonies recovered per transfection cells was extrapolated from counting at least 300 G418^r colonies per experiment. The number of colonies recovered from cells transfected with pcDNA3.1 in each experiment was considered to be 100%. Three independent transfection experiments were performed.
Given the proapoptotic function of TMS1, the consequences of TMS1 silencing were determined by re-introducing TMS1 into breast cancer cells lacking endogenous TMS1 expression. Colony forming ability of TMS1 negative breast cancer cells stably transfected with TMS1 expression constructs was analyzed in the following manner. Hs578t cells were transfected with the pcDNA3.1 vector or the indicated TMS1 expression construct. Twenty-four hours after transfection, cells were plated at limiting dilution in G418 selection medium. […]

[4] = MTMS22 cells with pon A, 40 μM Z-VAD

In the case of `Nc1ncn([C@H]2C[C@H](O)[C@@H](CO)O2)c(=O)n1` [5-aza-2′-deoxycytidine], the “methylation of the TMS1 CpG island” value (TMS1 CpG island) is reported as “partial demethylation” and the “expression of TMS1 transcript” value (TMS1 transcript) is reported as “re-expression-of TMS1 transcript”.
With `COC(=O)C[C@H](NC(=O)[C@H](C)NC(=O)[C@@H](NC(=O)OCc1ccccc1)C(C)C)C(=O)CF` [Z-VAD, Z-VAD-fmk] (Cbz-Val-Ala-Asp(OMe)-CH2F) the “effect on TMS1-induced DNA fragmentation” value (MTMS22 cells [1]; [4]) was “blocked”, the “effect on TMS1-induced cell death” value (MTMS22 cells [2]; [4]) was “blocked” and the “effect on growth of pIND1 control cells” value (pIND1 control cells) was “Neither pon A or Z-VAD had any effect”. For the same compound, the “effect on formation of TMS1-containing spherical aggregates” value (293 cells) was “no effect”.
`CC(C)CC[C@@H](O)[C@](C)(O)[C@H]1CC[C@@]2(O)C3=CC(=O)[C@@H]4C[C@@H](O)[C@@H](O)C[C@]4(C)[C@H]3CC[C@]12C` [pon A] was tested, and the “effect on growth of pIND1 control cells” value (pIND1 control cells) was “Neither pon A or Z-VAD had any effect”.
With “TMS1: human TMS1 polypeptide (SEQ ID NO:3) expressed from the TMS1 cDNA in pcDNA3.1” the “DNA laddering on induced TMS1 expression” value (MTMS22 cells [1]; MTMS22 cells, pon A, as early as 16 hours, most evident at 48 hours) was “DNA laddering was observed”, the “increase in cell death” value ([3]; 293 cells, ectopic expression) was 6 fold and the “apoptosis on ectopic expression” value [3] was “induced apoptosis”. For the same compound, the NF-κB-dependent transcriptional activation (NF-κB) was “no effect”, the “cell growth on induced TMS1 expression” value (MTMS22 cells [2]; MTMS22 cells, pon A, by 48 hours after induction) was “cell growth was significantly inhibited” and the “inhibition of colony formation” value (Hs578t cells) was “about 70%”.
In the case of “mycTMS1: TMS1 with a myc-epitope tag fused to amino acid 2”, the “apoptosis on ectopic expression” value [3] is reported as “induced apoptosis”.
